The record followed here is ChEMBL document CHEMBL3046026, “Evaluation of the curative and protectant activity of fungicides and fungicide-adjuvant mixtures on Phomopsis cane and leaf spot of grape: A controlled environment study” (2007).

Structures are written as SMILES. Calls of active or inactive are those of the source. The calls are words filed in the database; no cut-off is given here.

The subject of assay [1] is Diaporthe ampelina. The assay can be described thus: Antifungal activity against Diaporthe ampelina infected grape plant assessed as disease severity at internodes at 2.6 kg/ha incubated for 24 hr prior to treatment with 20 hr wetness period followed by 4 hr drying period measured after 4 weeks in presence of stylet oil(reference value: 3.2%). The assay is classed as functional.

For assay [2], the system named is Diaporthe ampelina. The assay can be described thus: Antifungal activity against Diaporthe ampelina infected grape plant assessed as disease severity at internodes at 1.19 kg a.i./ha treated 3 to 6 hr prior to inoculation followed by 24 hr wetness period measured after 4 weeks (reference value: 2.6%). The assay is classed as functional.
Assay [3] relates to Diaporthe ampelina. The assay can be described thus: Antifungal activity against Diaporthe ampelina infected grape plant assessed as decrease in lesions on leaf at 1.19 kg a.i./ha incubated for 20 hr prior to treatment with 16 hr wetness period and 4 hr drying time measured after 4 weeks relative to control in presence of stylet oil. The format is functional, organism-based.

The test system of assay [4] is Diaporthe ampelina. The assay can be described thus: Antifungal activity against Diaporthe ampelina infected grape plant assessed as decrease in lesions on leaf at 1.19 kg a.i./ha incubated for 24 hr prior to treatment with 20 hr wetness period followed by 4 hr drying period measured after 4 weeks relative to control in presence of regulaid. The format is functional, organism-based.

Assay [5] relates to Diaporthe ampelina. The assay can be described thus: Antifungal activity against Diaporthe ampelina infected grape plant assessed as decrease in lesions on leaf at 2.6 kg/ha incubated for 24 hr prior to treatment with 20 hr wetness period followed by 4 hr drying period measured after 4 weeks relative to control in presence of stylet oil. The format is functional, organism-based.

The test system of assay [6] is Diaporthe ampelina. The assay can be described thus: Antifungal activity against Diaporthe ampelina infected grape plant assessed as disease severity at internodes at 1.19 kg a.i./ha treated 3 to 6 hr prior to inoculation followed by 24 hr wetness period measured after 4 weeks in presence of stylet-oil(reference value: 2.9%). The format is functional.
In assay [7] the test system is Diaporthe ampelina. The experiment in a line: Antifungal activity against Diaporthe ampelina infected grape plant assessed as disease severity at internodes at 1.19 kg a.i./ha incubated for 24 hr prior to treatment with 20 hr wetness period followed by 4 hr drying period measured after 4 weeks in presence of stylet oil(reference value: 4.7%). The assay is classed as functional.

Assay [8] has as its system Diaporthe ampelina. The experiment in a line: Antifungal activity against Diaporthe ampelina infected grape plant assessed as disease severity at internodes at 2.6 kg/ha incubated for 24 hr prior to treatment with 20 hr wetness period followed by 4 hr drying period measured after 4 weeks in presence of regulaid (reference value: 3.2%). The assay is classed as functional.

In assay [9] the test system is Diaporthe ampelina. The assay can be described thus: Antifungal activity against Diaporthe ampelina infected grape plant assessed as decrease in lesions on leaf at 1.19 kg a.i./ha incubated for 24 hr prior to treatment with 20 hr wetness period followed by 4 hr drying period measured after 4 weeks relative to control in presence of stylet oil. The assay is classed as functional, organism-based.

Assay [10] relates to Diaporthe ampelina. The experiment in a line: Antifungal activity against Diaporthe ampelina infected grape plant assessed as decrease in lesions on leaf at 1.19 kg a.i./ha treated 3 to 6 hr prior to inoculation followed by 24 hr wetness period measured after 4 weeks relative to control in presence of stylet oil. The format is functional, organism-based.
The test system of assay [11] is Diaporthe ampelina. The assay can be described thus: Antifungal activity against Diaporthe ampelina infected grape plant assessed as decrease in lesions on leaf at 1.19 kg a.i./ha incubated for 20 hr prior to treatment with 16 hr wetness period and 4 hr drying time measured after 4 weeks relative to control in presence of regulaid. The assay is classed as functional, organism-based.

Assay [12] relates to Diaporthe ampelina. The assay can be described thus: Antifungal activity against Diaporthe ampelina infected grape plant assessed as disease severity at internodes at 1.19 kg a.i./ha incubated for 48 hr prior to treatment with 24 hr wetness period followed by 24 hr of drying period measured after 4 weeks in presence of stylet oil (reference value: 12.2%). The assay is classed as functional.

Assay [13] deals with Diaporthe ampelina. The experiment in a line: Antifungal activity against Diaporthe ampelina infected grape plant assessed as disease severity at internodes at 1.19 kg a.i./ha incubated for 48 hr prior to treatment with 24 hr wetness period followed by 24 hr of drying period measured after 4 weeks in presence of regulaid (reference value: 12.2%). The assay is classed as functional.

Assay [14] concerns Diaporthe ampelina. The assay can be described thus: Antifungal activity against Diaporthe ampelina infected grape plant assessed as disease severity at internodes at 1.19 kg a.i./ha incubated for 20 hr prior to treatment with 16 hr wetness period and 4 hr drying time measured after 4 weeks in presence of stylet oil(reference value: 7.3%). The assay is classed as functional.

Assay [15] relates to Diaporthe ampelina. The experiment in a line: Antifungal activity against Diaporthe ampelina infected grape plant assessed as re-isolation of mycelium from infected vines at 1.19 kg a.i./ha treated for weeks in presence of regulaid followed by inoculation on medium measured after 72 hr (reference value: 62.5%). The assay is classed as functional.
The test system of assay [16] is Diaporthe ampelina. The assay can be described thus: Antifungal activity against Diaporthe ampelina infected grape plant assessed as decrease in lesions on leaf at 1.19 kg a.i./ha treated 3 to 6 hr prior to inoculation followed by 24 hr wetness period measured after 4 weeks relative to control. The format is functional, organism-based.
The subject of assay [17] is Diaporthe ampelina. The assay can be described thus: Antifungal activity against Diaporthe ampelina infected grape plant assessed as decrease in lesions on leaf at 1.19 kg a.i./ha treated 3 to 6 hr prior to inoculation followed by 24 hr wetness period measured after 4 weeks relative to control in presence of regulaid. The assay is classed as functional, organism-based.

The test system of assay [18] is Diaporthe ampelina. The experiment in a line: Antifungal activity against Diaporthe ampelina infected grape plant assessed as disease severity at internodes at 1.19 kg a.i./ha treated 3 to 6 hr prior to inoculation followed by 24 hr wetness period measured after 4 weeks in presence of regulaid (reference value: 2.9%). The format is functional.
In assay [19] the test system is Diaporthe ampelina. The assay can be described thus: Antifungal activity against Diaporthe ampelina infected grape plant assessed as decrease in lesions on leaf at 1.19 kg a.i./ha incubated for 48 hr prior to treatment with 24 hr wetness period followed by 24 hr of drying period measured after 4 weeks relative to control in presence of stylet oil. The assay is classed as functional, organism-based.

The subject of assay [20] is Diaporthe ampelina. The assay can be described thus: Antifungal activity against Diaporthe ampelina infected grape plant assessed as decrease in lesions on leaf at 2.6 kg/ha incubated for 24 hr prior to treatment with 20 hr wetness period followed by 4 hr drying period measured after 4 weeks relative to control in presence of regulaid. The assay is classed as functional, organism-based.

The test system of assay [21] is Diaporthe ampelina. The experiment in a line: Antifungal activity against Diaporthe ampelina infected grape plant assessed as disease severity at internodes at 1.19 kg a.i./ha incubated for 20 hr prior to treatment with 16 hr wetness period and 4 hr drying time measured after 4 weeks in presence of regulaid (reference value: 7.3%). The format is functional.
The test system of assay [22] is Diaporthe ampelina. The assay can be described thus: Antifungal activity against Diaporthe ampelina infected grape plant assessed as re-isolation of mycelium from infected vines at 1.19 kg a.i./ha treated for weeks in presence of stylet oil followed by inoculation on medium measured after 72 hr (reference value: 62.5%). The assay is classed as functional.
Assay [23] has as its system Diaporthe ampelina. The assay can be described thus: Antifungal activity against Diaporthe ampelina infected grape plant assessed as disease severity at internodes at 1.19 kg a.i./ha incubated for 24 hr prior to treatment with 20 hr wetness period followed by 4 hr drying period measured after 4 weeks in presence of regulaid (reference value: 4.7%). The format is functional.

Assay [24] concerns Diaporthe ampelina. The assay can be described thus: Antifungal activity against Diaporthe ampelina infected grape plant assessed as decrease in lesions on leaf at 1.19 kg a.i./ha incubated for 48 hr prior to treatment with 24 hr wetness period followed by 24 hr of drying period measured after 4 weeks relative to control in presence of regulaid. The assay is classed as functional, organism-based.

In the case of `COC(=O)NC(=S)Nc1ccccc1NC(=S)NC(=O)OC` [THIOPHANATE METHYL], the Activity in assay [1] worked out at 1.8%; in assay [2] it was 0.1%; in [6] it was 2%; in assay [7] it was 0.7%; in [8], 0.7%; in [12], 5.1%. The Activity was determined as 3.8% in [13]; 7.5% in [14]; 37.1% in assay [15]; 1% in assay [18]; 4% in [21]; 41.1% in assay [22]. Besides, in [23], the Activity is reported as 3.3%. Besides, the outcome in assay [3], in assay [4], in assay [5], in assay [9], in assay [11] and in assay [19] was inactive. Also, the outcome in assay [20] and in [24] was inactive. The result in [10], in assay [16] and in assay [17] was Active.
